Measured values: article PMC8704707 (Pharmaceuticals, 2021)
In brackets after ≈: the same amount, converted by molar mass. Several values for one entry are separate records, joined by “and”; a condition that tells them apart may be missing. Equal values may be shown once. Read-outs that look alike come from different tables or passages of the source.

Key:
[1] = target: AChE from electric eel (EeAChE) (Electrophorus electricus, UniProt O42275); experiment: biochemical; type: biochemical
[2] = target: BuChE from equine serum (EqBuChE) (Equus caballus, UniProt P81908); experiment: biochemical
[3] = tested on: four Gram-positive and four Gram-negative bacterial strains; experiment: Antibacterial microdilution broth method, whole panel; type: cell-based
[4] = tested on: eight human pathogenic fungi; experiment: Antifungal microdilution broth method, whole panel; type: cell-based; conditions: not reported in Table 2, read-out: MIC, all fungal strains tested
[5] = tested on: HepG2 cells
Protocol: (§1) Cytotoxicity of the tested compounds was measured using the standard hepatic cell line HepG2. The used CellTiter 96® assay is based on the reduction of tetrazolium dye (MTS) in living cells to formazan, which is then determined colorimetrically.

[6] = in vitro; conditions: human; for IC50 at 24 h: HepG2 cells
Protocol: as §1

[7] = in vitro; conditions: human
[8] = tested on: HepG2 cells; experiment: LDH release assay (CytoTox 96), membrane integrity; conditions: read-out: EC50 LDH release assay
[9] = tested on: Staphylococcus aureus ATCC 29213; experiment: Antibacterial microdilution broth method (EUCAST); type: cell-based
[10] = tested on: methicillin-resistant Staphylococcus aureus ATCC 43300; experiment: Antibacterial microdilution broth method (EUCAST); type: cell-based; conditions: ATCC 43300 / MRSA
[11] = tested on: Staphylococcus epidermidis ATCC 12228; experiment: Antibacterial microdilution broth method (EUCAST); type: cell-based
[12] = tested on: Enterococcus faecalis ATCC 29212; experiment: Antibacterial microdilution broth method (EUCAST); type: cell-based
[13] = tested on: Escherichia coli ATCC 25922; experiment: Antibacterial microdilution broth method (EUCAST); type: cell-based
[14] = tested on: Acinetobacter baumannii ATCC 19606; experiment: Antibacterial microdilution broth method (EUCAST); type: cell-based
[15] = tested on: Pseudomonas aeruginosa ATCC 27853; experiment: Antibacterial microdilution broth method (EUCAST); type: cell-based
[16] = tested on: Klebsiella pneumoniae ATCC 10031; conditions: for MIC KP 24 h: 24 h incubation; for MIC KP 48 h: 48 h incubation
[17] = tested on: Candida albicans ATCC 24443; experiment: microbe, parasite or virus in culture; type: cell-based
[18] = tested on: Candida krusei ATCC 6258; experiment: microbe, parasite or virus in culture; type: cell-based; conditions: Pichia kudriavzevii
[19] = tested on: Candida parapsilosis ATCC 22019; experiment: microbe, parasite or virus in culture; type: cell-based; conditions: Lodderomyces parapsilosis
[20] = tested on: Candida tropicalis ATCC 750; experiment: microbe, parasite or virus in culture; type: cell-based
[21] = tested on: Trichophyton interdigitale ATCC 9533; experiment: microbe, parasite or virus in culture; type: cell-based
[22] = mean ± SD, n = three independent experiments, ATCh 40 µM, read-out: IC50 AChE
[23] = mean ± SD, n = three independent experiments, BTCh 40 µM, read-out: IC50 BuChE
[24] = read-out: MIC, all bacterial strains tested
[25] = read-out: IC50 cytotoxicity towards HepG2 cell line, CellTiter 96, 24 h incubation
[26] = ATCC29213, 24 h, read-out: MIC SA 24 h
[27] = ATCC29213, 48 h, read-out: MIC SA 48 h
[28] = ATCC12228, 24 h, read-out: MIC SE 24 h
[29] = ATCC12228, 48 h, read-out: MIC SE 48 h
[30] = ATCC29212, 24 h, read-out: MIC EF 24 h
[31] = ATCC29212, 48 h, read-out: MIC EF 48 h
[32] = ATCC25922, 24 h, read-out: MIC EC 24 h
[33] = ATCC25922, 48 h, read-out: MIC EC 48 h
[34] = ATCC19606, 24 h, read-out: MIC ACI 24 h
[35] = ATCC19606, 48 h, read-out: MIC ACI 48 h
[36] = ATCC27853, 24 h, read-out: MIC PA 24 h
[37] = ATCC27853, 48 h, read-out: MIC PA 48 h
[38] = ATCC24443, 24 h, read-out: MIC CA 24 h
[39] = ATCC24443, 48 h, read-out: MIC CA 48 h
[40] = ATCC6258, 24 h, read-out: MIC CK 24 h
[41] = ATCC6258, 48 h, read-out: MIC CK 48 h
[42] = ATCC22019, 24 h, read-out: MIC CP 24 h
[43] = ATCC22019, 48 h, read-out: MIC CP 48 h
[44] = ATCC750, 24 h, read-out: MIC CT 24 h
[45] = ATCC750, 48 h, read-out: MIC CT 48 h
[46] = ATCC9533, 72 h, read-out: MIC TI 72 h
[47] = ATCC9533, 120 h, read-out: MIC TI 120 h

BuChE from equine serum (EqBuChE), sequence (P81908 whole entry): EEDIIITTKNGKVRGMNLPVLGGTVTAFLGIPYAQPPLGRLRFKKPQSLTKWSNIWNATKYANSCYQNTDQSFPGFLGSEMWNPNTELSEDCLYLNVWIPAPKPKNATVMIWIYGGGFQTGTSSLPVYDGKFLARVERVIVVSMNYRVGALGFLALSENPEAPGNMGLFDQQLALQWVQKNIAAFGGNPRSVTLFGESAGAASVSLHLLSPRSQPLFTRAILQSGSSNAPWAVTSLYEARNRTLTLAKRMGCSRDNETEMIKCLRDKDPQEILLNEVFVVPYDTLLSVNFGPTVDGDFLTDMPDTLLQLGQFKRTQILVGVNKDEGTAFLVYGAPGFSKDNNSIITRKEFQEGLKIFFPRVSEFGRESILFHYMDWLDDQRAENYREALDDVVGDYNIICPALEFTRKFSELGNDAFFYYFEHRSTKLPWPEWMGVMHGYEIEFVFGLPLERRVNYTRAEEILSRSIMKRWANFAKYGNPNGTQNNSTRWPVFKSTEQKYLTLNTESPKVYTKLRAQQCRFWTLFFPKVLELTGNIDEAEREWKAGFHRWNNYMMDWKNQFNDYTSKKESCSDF
AChE from electric eel (EeAChE), sequence (O42275 24-633): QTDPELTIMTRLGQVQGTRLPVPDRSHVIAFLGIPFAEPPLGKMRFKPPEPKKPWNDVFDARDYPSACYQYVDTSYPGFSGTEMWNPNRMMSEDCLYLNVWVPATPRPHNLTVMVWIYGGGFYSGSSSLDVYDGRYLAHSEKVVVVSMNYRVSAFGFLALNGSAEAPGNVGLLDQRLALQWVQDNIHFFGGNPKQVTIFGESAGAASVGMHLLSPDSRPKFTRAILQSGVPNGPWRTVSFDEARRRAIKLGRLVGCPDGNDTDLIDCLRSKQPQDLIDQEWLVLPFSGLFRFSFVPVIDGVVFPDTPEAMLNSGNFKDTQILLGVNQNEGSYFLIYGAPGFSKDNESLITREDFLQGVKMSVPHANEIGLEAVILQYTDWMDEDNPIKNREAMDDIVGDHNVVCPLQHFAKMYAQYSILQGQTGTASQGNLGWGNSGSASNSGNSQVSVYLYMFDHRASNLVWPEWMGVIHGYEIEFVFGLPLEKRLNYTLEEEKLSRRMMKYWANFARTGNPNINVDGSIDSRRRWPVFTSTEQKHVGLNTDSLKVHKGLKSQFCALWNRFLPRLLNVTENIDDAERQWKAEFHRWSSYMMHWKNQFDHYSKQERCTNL

Row | Compound | IC50 [1, 22] [µM] | IC50 [2, 23] | IC50 at 24 h [6] [µM] | EC50 at 24 h ([7]; HepG2 cells) [µM] | EC50 ([8]; HepG2, 24 h incubation) [µM] | MIC [9, 26] [µM] | MIC [9, 27] [µM] | MIC ([10]; 24 h, read-out: MIC MRSA 24 h) [µM] | MIC ([10]; 48 h, read-out: MIC MRSA 48 h) [µM] | MIC [11, 28] [µM] | MIC [11, 29] [µM] | MIC [12, 30] [µM] | MIC [12, 31] [µM] | MIC [13, 32] [µM] | MIC [13, 33] [µM] | MIC [14, 34] [µM] | MIC [14, 35] [µM] | MIC [15, 36] [µM] | MIC [15, 37] [µM] | Selectivity AChE/BuChE [1] | further results
1 | [H]/N=C(\N)NN=Cc1cc(I)cc(I)c1O [Compound 1m, (E)-2-(2-Hydroxy-3,5-diiodobenzylidene)hydrazine-1-carboximidamide] | 29 ± 2.49 | < 20 µM and 3.57 µM | > 29 | > 20 | 21.3 | – | – | – | – | – | – | – | – | – | – | – | – | – | – | – | MIC [3, 24]: ≥ 500 µM; MIC [4]: ≥ 500 µM; IC50 [5, 25]: 56.5 µM
2 | [H]/N=C(\N)NN=Cc1ccc([N+](=O)[O-])o1 [Compound 1n, (E)-2-[(5-Nitrofuran-2-yl)methylene]hydrazine-1-carboximidamide] | – | – | – | – | 3.55 | 62.5 (≈ 12.3 µg/mL) | 125 (≈ 24.6 µg/mL) | 125 (≈ 24.6 µg/mL) | 125 (≈ 24.6 µg/mL) | 62.5 (≈ 12.3 µg/mL) | 125 (≈ 24.6 µg/mL) | 500 (≈ 98.6 µg/mL) | 500 (≈ 98.6 µg/mL) | 62.5 (≈ 12.3 µg/mL) | 125 (≈ 24.6 µg/mL) | 250 (≈ 49.3 µg/mL) | 500 (≈ 98.6 µg/mL) | 500 (≈ 98.6 µg/mL) | 500 (≈ 98.6 µg/mL) | 0.12 | IC50 [1]: 24.2 ± 0.75 µM; Type of inhibition of AChE [1]: mixed inhibition; IC50 ([2]; IC50 BuChE): 204 ± 13.2 µM; MIC [4]: ≥ 500 µM; MIC KP 24 h [16]: 250 µM (≈ 49.3 µg/mL); MIC KP 48 h [16]: 250 µM (≈ 49.3 µg/mL); IC50 ([5]; human): 10.4 µM; IC50 [6]: < 11 µM; EC50 at 24 h [7]: < 6 µM
3 | NC(N)=NN=C1C(=O)Nc2ccccc21 [Compound 1p, 2-(2-Oxoindolin-3-ylidene)hydrazine-1-carboximidamide] | 17.9 ± 0.9 | < 20 µM and 17.5 µM | > 500 | > 100 | 130 | – | – | – | – | – | – | – | – | – | – | – | – | – | – | 1.03 | Type of inhibition of AChE [1]: mixed inhibition; Type of inhibition of BuChE [2]: mixed inhibition; MIC [3, 24]: ≥ 500 µM; MIC [4]: ≥ 500 µM; Cytotoxicity in HepG2 in words ([5]; range of tested concentrations up to 500 µM): no significant cytotoxicity
4 | CC(=O)Oc1c(I)cc(I)cc1/C=N/NC(=N)N [Compound 2a, (E)-2-[(2-Carbamimidoylhydrazineylidene)methyl]-4,6-diiodophenyl acetate] | 20.5 ± 0.48 | < 20 µM and 4.52 µM | > 29 | > 20 | 30.4 | 125 | 125 | 125 | 125 | 250 | 250 | 250 | 250 | 250 | 250 | 500 | 500 | > 500 | > 500 | 4.54 | MIC [17, 38]: 125 µM; MIC [17, 39]: 125 µM; MIC [18, 40]: 500 µM; MIC [18, 41]: 500 µM; MIC [19, 42]: 500 µM; MIC [19, 43]: 500 µM; MIC [20, 44]: 500 µM; MIC [20, 45]: 500 µM; MIC [21, 46]: 62.5 µM; MIC [21, 47]: 125 µM; Type of inhibition of AChE [1]: mixed inhibition; Type of inhibition of BuChE [2]: mixed inhibition; MIC KP 24 h [16]: 250 µM; MIC KP 48 h [16]: 250 µM; IC50 [5, 25]: 31.3 µM
5 | [H]/N=C(\N)NN=Cc1cc(I)cc(I)c1 [Compound 2c, (E)-2-(3,5-Diiodobenzylidene)hydrazine-1-carboximidamide] | 29 ± 1.19 | 85.5 ± 1.46 µM | < 11 | < 6 | 5.44 | 15.6 (≈ 6.47 µg/mL) | 15.6 (≈ 6.47 µg/mL) | 15.6 (≈ 6.47 µg/mL) | 15.6 (≈ 6.47 µg/mL) | 7.8 (≈ 3.23 µg/mL) | 7.8 (≈ 3.23 µg/mL) | 31.2 (≈ 12.9 µg/mL) | 31.2 (≈ 12.9 µg/mL) | 62.5 (≈ 25.9 µg/mL) | 62.5 (≈ 25.9 µg/mL) | 250 (≈ 103 µg/mL) | 250 (≈ 103 µg/mL) | 250 (≈ 103 µg/mL) | 250 (≈ 103 µg/mL) | 0.34 | MIC ([3]; read-out: MIC against staphylococci): 31.2 to 125 µM (≈ 12.9 to 51.7 µg/mL); MIC [4]: ≥ 500 µM; MIC KP 24 h [16]: 62.5 µM (≈ 25.9 µg/mL); MIC KP 48 h [16]: 62.5 µM (≈ 25.9 µg/mL); IC50 [5, 25]: 9.84 µM
6 | Cl.N=C(NN)N/N=C/c1cc(I)cc(I)c1O [Compound 2e, (E)-Hydrazineyl[2-(2-hydroxy-3,5-diiodobenzylidene)hydrazineyl]methaniminium chloride] | – | – | > 100 | > 100 | – | 62.5 | 125 | 125 | 125 | 31.2 | 31.2 | > 125 | > 125 | > 125 | > 125 | > 125 | > 125 | > 125 | > 125 | – | MIC [17, 38]: 125 µM; MIC [17, 39]: 125 µM; MIC [18, 40]: 125 µM; MIC [18, 41]: 125 µM; MIC [19, 42]: 125 µM; MIC [19, 43]: 125 µM; MIC [20, 44]: 125 µM; MIC [20, 45]: 125 µM; MIC [21, 46]: 125 µM; MIC [21, 47]: 125 µM; IC50 [1]: 28.2 ± 0.98 µM; Type of inhibition of BuChE [2]: mixed inhibition; IC50 ([2]; read-out: IC50 BuChE): 1.69 ± 0.17 µM; MIC KP 24 h [16]: >125 µM; MIC KP 48 h [16]: >125 µM; IC50 ([5]; read-out: IC50 cytotoxicity towards HepG2 cell line): 120 µM; EC50 [8]: 132 µM
7 | NC(=S)N/N=C/c1ccc([N+](=O)[O-])o1 [Compound 3e, (E)-2-[(5-Nitrofuran-2-yl)methylene]hydrazine-1-carbothioamide] | 33.16 ± 0.06 | > 500 µM | > 29 | < 6 | 5.25 | 62.5 (≈ 13.4 µg/mL) | 62.5 (≈ 13.4 µg/mL) | 62.5 (≈ 13.4 µg/mL) | 62.5 (≈ 13.4 µg/mL) | 31.2 (≈ 6.69 µg/mL) | 62.5 (≈ 13.4 µg/mL) | 125 (≈ 26.8 µg/mL) | 125 (≈ 26.8 µg/mL) | 125 (≈ 26.8 µg/mL) | 250 (≈ 53.6 µg/mL) | > 500 | > 500 | > 500 | > 500 | <0.07 | MIC KP 24 h [16]: 62.5 µM (≈ 13.4 µg/mL); MIC KP 48 h [16]: 62.5 µM (≈ 13.4 µg/mL); IC50 [5, 25]: 29.8 µM
